# The source made the active and inactive calls. Cut-off read from the data, not from the text of the source, for most assays here: actives have a measured EC50 and inactives only a lower limit.
# What was measured:
# H9c2 = assay: cells; assay type: functional, cell-based; details: Rattus norvegicus, H9c2, Myocardium;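 note: confirmatory concentration-response retest of ultra-high-throughput screening hits for modulation of myocardial damage; cell death induced by hydrogen peroxide oxidative stress; compound pretreatment for 60 min then peroxide exposure for 2 h; potency is for protecting the cells against peroxide damage rather than for killing them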
# [1] = biological target: T1, Corticotropin-releasing factor receptor 2/Corticotropin-releasing factor-binding protein (Homo sapiens, UniProt P24387+Q13324); assay: Dose Response confirmation of uHTS hits for small molecule antagonists of the CRF-binding protein and CRF-R2 receptor complex.; assay type: functional; details: read-out: IC50_Mean
# T1 sequence (Q13324 whole entry): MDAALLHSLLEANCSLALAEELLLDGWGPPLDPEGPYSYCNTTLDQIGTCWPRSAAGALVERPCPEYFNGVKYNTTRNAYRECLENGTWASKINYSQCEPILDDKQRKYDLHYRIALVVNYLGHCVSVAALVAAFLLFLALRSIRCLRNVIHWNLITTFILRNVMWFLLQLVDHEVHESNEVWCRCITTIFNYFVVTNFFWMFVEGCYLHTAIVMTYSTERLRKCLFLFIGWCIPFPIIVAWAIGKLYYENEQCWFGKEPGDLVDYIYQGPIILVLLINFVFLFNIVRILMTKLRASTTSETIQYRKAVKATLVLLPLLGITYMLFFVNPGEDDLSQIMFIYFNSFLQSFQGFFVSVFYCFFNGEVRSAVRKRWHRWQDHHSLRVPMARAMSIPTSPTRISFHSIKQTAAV
# T1 sequence (P24387 whole entry): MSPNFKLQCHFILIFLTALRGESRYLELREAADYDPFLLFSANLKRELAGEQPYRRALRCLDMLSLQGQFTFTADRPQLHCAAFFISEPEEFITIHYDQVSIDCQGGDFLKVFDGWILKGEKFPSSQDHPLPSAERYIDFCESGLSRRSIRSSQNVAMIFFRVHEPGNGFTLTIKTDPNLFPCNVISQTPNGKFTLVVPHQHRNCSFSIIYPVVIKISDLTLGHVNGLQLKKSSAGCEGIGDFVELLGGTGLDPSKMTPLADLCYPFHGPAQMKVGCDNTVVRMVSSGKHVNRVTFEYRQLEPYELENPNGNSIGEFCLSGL
# [2] = biological target: T1, Corticotropin-releasing factor receptor 2/Corticotropin-releasing factor-binding protein; assay: activators of CRF receptor 2 with binding protein – uHTS hits, confirmation (AID 602473); assay type: functional; details: read-out: EC50_Mean
# [3] = biological target: T2, Zinc finger protein mex-5 (Caenorhabditis elegans, UniProt Q9XUB2); assay: potency of MEX-5 RNA-binding blockers – biochemical, C. elegans, fluorescence polarization, dose response (AID 1960)
# T2 sequence (Q9XUB2 whole entry): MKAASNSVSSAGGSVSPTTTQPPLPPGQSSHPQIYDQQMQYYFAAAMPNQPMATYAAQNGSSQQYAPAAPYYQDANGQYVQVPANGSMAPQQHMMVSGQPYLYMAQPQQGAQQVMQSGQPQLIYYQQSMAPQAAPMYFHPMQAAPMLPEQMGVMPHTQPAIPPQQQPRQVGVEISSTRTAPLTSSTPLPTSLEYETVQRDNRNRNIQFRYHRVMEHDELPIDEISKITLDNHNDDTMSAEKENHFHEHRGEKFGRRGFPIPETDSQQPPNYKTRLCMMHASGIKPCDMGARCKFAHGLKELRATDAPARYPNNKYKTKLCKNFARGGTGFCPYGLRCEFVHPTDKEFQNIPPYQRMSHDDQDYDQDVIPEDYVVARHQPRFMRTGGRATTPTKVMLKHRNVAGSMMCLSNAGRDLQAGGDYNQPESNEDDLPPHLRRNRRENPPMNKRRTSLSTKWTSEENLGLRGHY
# [4] = biological target: T3, RNA-binding protein pos-1 (Caenorhabditis elegans, UniProt G5EF15); assay: disruptors of C. elegans POS-1 RNA interaction – biochemical, fluorescence polarization, dose response (AID 1964);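 note: purified POS-1 fused to maltose binding protein made in E. coli; potency of compounds blocking POS-1 binding to fluorescent RNA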
# T3 sequence (G5EF15 whole entry): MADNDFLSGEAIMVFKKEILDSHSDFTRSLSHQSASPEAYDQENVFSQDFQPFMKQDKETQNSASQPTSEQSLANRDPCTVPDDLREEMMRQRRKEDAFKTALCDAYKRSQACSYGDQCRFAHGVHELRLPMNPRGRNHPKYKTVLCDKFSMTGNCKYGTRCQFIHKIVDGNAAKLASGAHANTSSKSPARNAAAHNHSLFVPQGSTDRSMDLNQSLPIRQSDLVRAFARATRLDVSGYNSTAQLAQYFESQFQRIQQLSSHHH
# Streptococcus = assay: GAS UMAA2166 growth inhibition – luminescence, BacTiterGlo, counter-screen for streptokinase expression inhibitor project, dose response (AID 1915); assay type: functional, organism-based;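 note: potency for reduction of bacterial viability or growth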
# [5] = test system: Streptococcus sp. 'group A'; assay: Streptococcus pyogenes SK(-)GAS viability under kanamycin – luminescence, BacTiterGlo, confirmation, counter-screen for streptokinase expression inhibitor project, dose response (AID 1900); assay type: functional, organism-based
# Streptokinase A = biological target: T4, Streptokinase A (Streptococcus pyogenes serotype M1, UniProt P10520); assay: viability-normalized secreted streptokinase activity reduction – plasminogen activation absorbance, OD405, dose response (AID 1914); assay type: functional, Streptococcus pyogenes M1 GAS;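 note: secreted streptokinase activity via plasminogen activation per viability signal from cell pellet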
# T4 sequence (P10520 whole entry): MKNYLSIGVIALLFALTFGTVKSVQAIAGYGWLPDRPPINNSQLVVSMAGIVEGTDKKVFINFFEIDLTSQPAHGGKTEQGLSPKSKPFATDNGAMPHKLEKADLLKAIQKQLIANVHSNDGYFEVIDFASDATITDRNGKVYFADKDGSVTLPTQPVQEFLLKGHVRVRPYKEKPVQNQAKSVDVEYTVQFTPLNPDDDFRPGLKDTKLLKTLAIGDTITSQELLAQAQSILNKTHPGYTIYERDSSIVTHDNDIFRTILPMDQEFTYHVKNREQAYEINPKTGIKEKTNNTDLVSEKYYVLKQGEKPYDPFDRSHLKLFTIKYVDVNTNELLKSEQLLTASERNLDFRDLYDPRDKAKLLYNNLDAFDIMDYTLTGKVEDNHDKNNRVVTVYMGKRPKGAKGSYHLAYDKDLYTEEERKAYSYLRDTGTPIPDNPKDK
# [6] = fluconazole-exposed Candida albicans growth modulators – fluorescence, retest, confirmation (AID 2467); assay type: functional, cell-based
# [7] = NIH-3T3 fibroblast cytotoxicity, dose response, cytotoxicity control, cell-based, fluorescence, Alamar Blue, secondary assay (AID 2327); assay type: functional;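 note: NIH-3T3 mouse fibroblasts cultured with fluconazole at 8 µg/mL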
# [8] = NIH3T3 cell viability loss – ATP luminescence, mouse fibroblasts, counter-screen, dose response (AID 2010); assay type: functional, cell-based;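 note: cells exposed to compound for about 90 hours before reading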
# [9] = Trypanosoma cruzi growth suppression in host cells – NIH3T3 host cells, beta-gal luminescence, confirmation (AID 2044); assay type: functional, cell-based;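 note: intracellular parasites grown in NIH/3T3 mouse fibroblasts as host cells; luminescent beta-galactosidase reporter signal from transgenic T. cruzi replicating inside host cells; inhibitors lower the luminescence signal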
smiles,measurement,setting,value
N#Cc1cnn2cc(-c3ncc(C(F)(F)F)cc3Cl)cnc12,IC50,H9c2,> 79 µM (inactive)
Cc1cc2ccccc2c(O)n1,IC50,H9c2,23.5 µM (active)
O=C(Nc1ccc(N2CCCCCC2)cc1)c1ccccc1Cl,IC50,[1],> 47.1 µM (inactive)
same,EC50,[2],> 53 µM (inactive)
N#CCC(N)=C(C#N)C#N,EC50,[3],169 µM (active)
same,EC50,[4],54.9 µM (active)
CCOc1ccc2c(c1)=C(NN1C(=O)c3ccccc3C1=O)C(=O)N=2,IC50,[1],> 47.1 µM (inactive)
same,EC50,[2],> 53 µM (inactive)
Cc1nc(SCC(=O)NCc2ccc(F)cc2)c2c(=O)n(C)c(=O)n(C)c2n1,IC50,H9c2,> 79 µM (inactive)
COc1ccc(-c2cc3ccc(OCC(N)=O)cc3oc2=O)cc1OC,EC50,[3],> 300 µM (not active)
same,EC50,[4],> 300 µM (not active)
CCn1c(=O)cc(OCC(=O)Nc2ccccc2C#N)c2ccccc21,IC50,H9c2,18.1 µM (active)
Cn1c(N)c(C(=O)COC(=O)/C=C/c2ccc(OC(F)F)cc2)c(=O)n(C)c1=O,EC50,Streptococcus,13.4 µM (active)
same,EC50,[5],3.34 µM (active)
same,EC50,Streptokinase A,> 150 µM (not active)
O=C(O)c1nn(CCOc2ccc(Br)cc2)c(=O)c2ccccc12,IC50,H9c2,> 79 µM (inactive)
O=S(=O)(c1cccc(-c2csc(-c3cccnc3)n2)c1)N1CCOCC1,EC50,[3],> 300 µM (not active)
same,EC50,[4],> 300 µM (not active)
CCOC(=O)c1cc(C(=O)OCC)cc(-n2c(C)cc(C(=O)CN3CCOCC3)c2C)c1,EC50,[3],> 300 µM (not active)
same,EC50,[4],> 300 µM (not active)
CN1/C(=C/C=C(C#N)C#N)C(C)(C)c2ccccc21,EC50,[3],> 300 µM (inconclusive)
same,EC50,[4],248 µM (active)
CC(C(=O)c1ccccc1)[n+]1cccc(Br)c1 (centres undefined),EC50,[6],> 38 µM (not active)
same,EC50,[7],> 150 µM (inactive)
N#Cc1ccccc1S(=O)(=O)N1CCN(c2nc(-c3cccnc3)nc3ccccc23)CC1,IC50,H9c2,27.7 µM (active)
COc1ccc(N2C(=O)CC(c3ccc([N+](=O)[O-])cc3)C2=O)cc1 (centres undefined),IC50,[1],> 47.1 µM (inactive)
same,EC50,[2],> 53 µM (inactive)
Cc1cc(N)n(-c2nc(-c3cccnc3)nc3ccccc23)n1,IC50,H9c2,11.6 µM (active)
COc1cc(C(=O)NNC(=S)NC(=O)c2ccc(F)cc2)cc(OC)c1OC,EC50,Streptococcus,15.5 µM (active)
same,EC50,[8],14.9 µM (active)
same,EC50,[9],0.791 µM (active)
same,EC50,[5],3.25 µM (active)
same,EC50,Streptokinase A,> 150 µM (not active)
O=C(CSc1ccccc1)N(c1ccc(Br)cc1)c1nccs1,IC50,[1],> 47.1 µM (inactive)
same,EC50,[2],> 53 µM (inactive)
CNC(=O)c1c(NC(=O)c2ccc(S(=O)(=O)N3CCCCC3C)cc2)sc2c1CCN(C)C2 (centres undefined),EC50,[3],> 300 µM (not active)
same,EC50,[4],> 300 µM (not active)
Cc1ccc(N2C(=O)C3CC(c4ccccc4)=C4C5C=CC(C6C(=O)N(c7ccc(C)cc7)C(=O)C56)C4C3C2=O)cc1 (centres undefined),EC50,Streptococcus,30.9 µM (active)
same,EC50,[5],1.41 µM (active)
same,EC50,Streptokinase A,> 150 µM (not active)
COc1cc(NC(=O)CSc2nc3ncnc(N)c3[nH]2)c(C(=O)O)cc1OC,EC50,[3],30.3 µM (active)
same,EC50,[4],29.2 µM (active)
CC1C2=C(O)CC(C)(C)CC2=NC2=C1C(=O)CC(C)(C)C2 (centres undefined),EC50,[2],> 53 µM (inactive)
N#CC1=C(N)OC2=C(C(=O)CCC2)C1c1ccccc1 (centres undefined),EC50,[3],> 300 µM (not active)
same,EC50,[4],> 300 µM (not active)
O=c1c2ccccc2c(-c2ccccc2)nn1Cc1c(Cl)cccc1Cl,EC50,Streptococcus,> 150 µM (not active)
same,EC50,[5],7.76 µM (active)
same,EC50,Streptokinase A,17 µM (active)
O=C(NCC1CCCO1)C(c1ccc(F)cc1)N(Cc1ccc(F)cc1)C(=O)Cn1nnc(-c2cccs2)n1 (centres undefined),EC50,[6],> 38 µM (not active)
same,EC50,[7],> 160 µM (inactive)
COC(=O)c1cc(C)sc1NC(=O)c1cccnc1,EC50,[6],> 38 µM (not active)
same,EC50,[7],62.4 µM (active)
CC1CCCC(C)N1C(=O)CSc1nc(O)c2ccccc2n1 (centres undefined),IC50,H9c2,> 79 µM (inactive)
COC(=O)c1ccc(N2CCN(C)CC2)c(NC(=O)COc2ccc(C)cc2)c1,EC50,Streptococcus,> 150 µM (not active)
same,EC50,[5],> 150 µM (not active)
same,EC50,Streptokinase A,> 150 µM (not active)
CC(C)COc1nc2ccccc2c(=O)n1OCC(=O)O,IC50,H9c2,> 79 µM (inactive)
COc1ccc(OC)c(N(CC(=O)Nc2cccnc2)S(=O)(=O)c2ccc(OC)c(OC)c2)c1,IC50,H9c2,12 µM (active)
Oc1nc(Nc2ccc(F)cc2)sc1/C=C1\C=Nc2ccccc21,EC50,Streptococcus,18.4 µM (active)
same,EC50,[5],7.02 µM (active)
same,EC50,Streptokinase A,> 150 µM (not active)
CCn1c(=O)n(CC(=O)N2CCN(c3ccccc3F)CC2)c(=O)c2ccccc21,EC50,[6],> 38 µM (not active)
same,EC50,[7],> 160 µM (inactive)
CCSc1nc2ccccc2n1CC(=O)N1CCCCC1,IC50,[1],> 47.1 µM (inactive)
same,EC50,[2],> 53 µM (inactive)
COc1ccc(C(=O)NNC(=O)CCc2nc(O)c3ccccc3n2)cc1,IC50,H9c2,26 µM (active)
COc1ccccc1N1CCN(Cc2c(F)cccc2Cl)CC1,IC50,[1],> 47.1 µM (inactive)
same,EC50,[2],> 53 µM (inactive)
N#CCCN(C(=O)COC(=O)CCc1nc(O)c2ccccc2n1)c1ccccc1F,IC50,H9c2,13 µM (active)
CCOc1ccc(/C=C(\C#N)C(=O)NC2CC2)c(OCC)c1,IC50,[1],> 47.1 µM (inactive)
same,EC50,[2],> 53 µM (inactive)
COc1cc(OC)cc(C(=O)Nc2ccc(S(=O)(=O)Nc3cnc4ccccc4n3)cc2)c1,IC50,[1],> 47.1 µM (inactive)
same,EC50,[2],> 53 µM (inactive)
O=[N+]([O-])c1cccc(/C=N/NC2=NCCCCC2)c1,IC50,[1],> 47.1 µM (inactive)
same,EC50,[2],> 53 µM (inactive)
COc1cc(/C=N/NC(=O)c2ccccc2)ccc1OS(=O)(=O)c1ccccc1,IC50,H9c2,> 79 µM (inactive)
O=S(=O)(/N=C(\c1ccc(F)cc1)N1CCOCC1)c1ccccc1,EC50,[2],> 53 µM (inactive)
CCOC(=O)C1=c2/c(=C/c3ccncc3)c(N)c(C(=O)OC)n2C(=O)C(c2ccncc2)S1 (centres undefined),IC50,H9c2,> 79 µM (inactive)
CCc1ccc(/C=N/n2c(S)nnc2C2CCCCC2)cc1,EC50,Streptococcus,15.1 µM (active)
same,EC50,[5],11.1 µM (active)
same,EC50,Streptokinase A,> 150 µM (not active)
C/C(=N/Nc1nc(-c2ccccc2F)nc2ccccc12)c1ccccc1O,EC50,Streptococcus,> 150 µM (not active)
same,EC50,[5],10.2 µM (active)
same,EC50,Streptokinase A,> 150 µM (not active)

# From ChEMBL document CHEMBL1201862, “PubChem BioAssay data set” (2004)
